According to patent US20040138193A1, “Oestrogen fatty acid monoester as a hypolipidaemic and antidiabetic agent” (priority 2001, published 2004):

Tests used:
Assay type in all cases: in vivo, rat
[1] = tested on: normal-weight adult female Zucker rats (genotype Fa/?); assay: Plasma lipoproteinogram (polyacrylamide gel electrophoresis), normal-weight rats; conditions: 10 micromols per kg daily, 10 days
Description: FIG. 1 is a lipoproteinogram of plasma from normal-weight rats (Zucker Fa/?), showing the effect of oleoyl-estrone on lipoprotein distribution. I=intact; C=control; T=treated with oleoyl-estrone; HDL=high-density lipoproteins; LDL=low-density lipoproteins; VLDL=very low-density lipoproteins.
Since treatment with oleoyl-estrone deeply modifies the plasma lipids of rats, an experiment was carried out to determine whether the oral administration of oleoyl-estrone modifies the plasma lipidogram of lean and genetically obese rats. Two groups of animals were used: (1) normal-weight adult female Zucker rats (genotype Fa/?), and (2) genetically obese adult female Zucker rats (genotype fa/fa). In the first group one rat was killed to obtain a sample of blood (intact control); in the second group (obese rats), two intact controls were killed and their blood recovered. […] All blood samples were centrifuged to obtain plasma; plasma proteins were analysed by means of polyacrylamide gel electroforesis (kit Lipofilm, Sebia, Issy les Molineaux, France), lipids were stained with Sudan black.

lean rats = assay: Lipoprotein separation by ultracentrifugation and lipid composition analysis, lean rats; conditions: 10 μmol/kg daily, vs controls
Description: Codes in bars are: triacylglycerols=white; phospholipids=lines; cholesterol=dots.
(§1) Lipoproteins in fresh plasma were fractionated by differential ultracentrifugation in known density media obtained through the addition of KBr. […] These fractions were used for the analysis of protein and lipidic components, and for the estimation of particle size.
(§2) Whole plasma, lipoprotein fractions and LPdp were used for the analysis of protein and lipid content. Total protein was estimated with the Bradford method (cf. M. M. Bradford, Anal. Biochem. 1976, vol. 72, pp. 248-254). Total cholesterol was measured in saline with a high-performance cholesterol kit. Triacylglycerol concentrations were measured with a commercial kit and the results were corrected for free glycerol. Phospholipid was quantified by a choline-based method. […] Recoveries for all plasma components (i.e. deviations from the values in whole plasma and those derived from the sum of its content in lipoprotein fractions) were lowest for triacylglycerols (88±3%) and highest for protein (92±3%). Sudan black-prestained serum samples were sepparated by polyacrylamide gel electrophoresis. Separation of lipoprotein classes through centrifugation allowed a detailed analysis of lipoprotein composition as shown in FIGS. 3 and 4.

[2] = tested on: genetically obese adult female Zucker rats (genotype fa/fa); assay: Plasma lipoproteinogram (polyacrylamide gel electrophoresis), obese rats; conditions: 10 micromols per kg daily, 10 days
Description: FIG. 2 is a lipoproteinogram analogous to the one of FIG. 1, but using obese rats (Zucker fa/fa).
Since treatment with oleoyl-estrone deeply modifies the plasma lipids of rats, an experiment was carried out to determine whether the oral administration of oleoyl-estrone modifies the plasma lipidogram of lean and genetically obese rats. Two groups of animals were used: (1) normal-weight adult female Zucker rats (genotype Fa/?), and (2) genetically obese adult female Zucker rats (genotype fa/fa). In the first group one rat was killed to obtain a sample of blood (intact control); in the second group (obese rats), two intact controls were killed and their blood recovered. All the remaining rats were kept under standard housing conditions, with free access to food and water; the rats receivid a daily gavage of 0.2 ml of sunflower oil by means of a stomach tube; in three rats form each group, the oil was supplemented with enough oleoyl-estrone to achieve a daily dose of 10 micromols per kg of rat weight. After 10 days of treatment, the rats were killed, and their blood was recovered. All blood samples were centrifuged to obtain plasma; plasma proteins were analysed by means of polyacrylamide gel electroforesis (kit Lipofilm, Sebia, Issy les Molineaux, France), lipids were stained with Sudan black.

obese rats = assay: Lipoprotein separation by ultracentrifugation and lipid composition analysis, obese rats; conditions: 10 μmol/kg daily, vs controls
Description: FIG. 4 is analogous to FIG. 3, but for obese rats.
as §1, §2

lipoprotein lipase = assay: Lipoprotein lipase activity in plasma and tissues of treated lean and obese rats; conditions: for Lipoprotein-lipase activity, WAT mesenteric, whole tissue of the rat / Lipoprotein-lipase activity, WAT periovaric, whole tissue of the rat / Lipoprotein-lipase activity, Muscle, whole tissue of the rat: 10 μmol/kg · d; for Lipoprotein-lipase activity, WAT mesenteric, whole tissue of the rat: calculated assuming all WAT had the specific activity of mesenteric WAT; for Lipoprotein-lipase activity, WAT periovaric, whole tissue of the rat: calculated assuming all WAT had the specific activity of periovaric WAT; for Lipoprotein-lipase activity, Liver, per gram of tissue protein / Lipoprotein-lipase activity, Liver, per unit of tissue weight / Lipoprotein-lipase activity, Liver, whole organ of the rat / Lipoprotein-lipase activity, Muscle, per gram of tissue protein / Lipoprotein-lipase activity, Muscle, per unit of tissue weight / Lipoprotein-lipase activity, Plasma / Lipoprotein-lipase activity, Plasma, per gram of protein / Lipoprotein-lipase activity, WAT mesenteric, per gram of tissue protein / Lipoprotein-lipase activity, WAT mesenteric, per unit of tissue weight / Lipoprotein-lipase activity, WAT periovaric, per gram of tissue protein / Lipoprotein-lipase activity, WAT periovaric, per unit of tissue weight / Lipoprotein-lipase activity, Plasma, whole compartment of the rat: daily gavage 10 μmol/kg · d; for Lipoprotein-lipase activity, Plasma, whole compartment of the rat: plasma mass taken as 2.75% of body weight; for overall lipoprotein lipase activity in the rat (muscle + liver + plasma + WAT): rough estimate
Description: Liver, muscle and WAT (white adipose tissue) samples were homogenized in 10 mM hepes buffer pH 7.5, containing 250 mM sucrose, 1 MM-EDTA and 1 mM dithiothreitol in order to measure lipoprotein lipase activity in tissues. Homogenates were clarified by centrifugation (10 min at 10,000×g) at 4° C. The assay mixture (pH 7.5) contained 0.6 mM tri-[9,10(n)-^3H]-oleoyl-glycerol, 50 mM MgCl2, 0.5 g/L albumin (fatty acid-free), 3 ml/L preheated (60 min at 50° C.)rat serum, 25 mM PIPES buffer and 0.02 ml of sample in a final volume of 0.2 ml; the incubation was carried out for 30 min at 25° C.; after the reaction was stopped, the [^3H]-oleate evolved was quantified. All measurements of lipoprotein lipase activity in plasma and liver homogenates were carried out in the presence of anti-rat hepatic lipase antiserum. The homogenate and plasma protein content were determined with the Bradford method.
The enzyme activity was expressed in nkat/L of plasma of nkat/kg of tissue; the values were also referred to plasma or tissue protein content. The overall share of potential activity of the enzymes studied was also estimated by determining the contribution of each organ/tissue: plasma, liver and WAT (white adipose tissue) enzyme activity in relation to body mass. The results are expressed as the total activity found per kg of body weight in a given tissue or compartment. The liver was directly weighed (3.38±0.10% of BW (body weight) for lean and 3.17±0.13% of BW for the obese). The mass of plasma was taken as a 2.75% of body weight (blood being 5% of body weight, and packed cell volume 45% of that value). Overall WAT lipoprotein lipase activity in both groups of animals was calculated using the mean values for either the periovaric or mesenteric locations of both sets of data and the proportions of WAT published for lean [15% of BW] control and oleoyl-estrone-treated [7% of BW] and obese Zucker fa/fa rat [35% BW] control and oleoyl-estrone-treated [28% BW]. Muscle mass was calculated also as a proportion of body weight: 43% for lean and 33 for obese rats.
Statistical analysis of the differences between groups was established using ANOVA programs and the Student's t test.

Compound: CCCCCCCC/C=C\CCCCCCCC(=O)Oc1ccc2c(c1)CC[C@@H]1[C@@H]2CC[C@]2(C)C(=O)CC[C@@H]12 [oleoyl-estrone]
- change of VLDLs in lipoproteinogram [1]: marked increase
- change of high density lipoproteins in lipoproteinogram [1]: marked reduction
- change in lipoprotein composition (lean rats): little change
- change of cholesterol in the HDL fraction (lean rats): decreased most
- change of total phospholipid levels in lipoprotein-depleted plasma (lean rats): decrease
- lipoprotein pattern in lipoproteinogram [2]: this same pattern is repeated, but there is an additional wide band between the LDL and VLDL zones
- change of HDL components (obese rats): all components decreased again with treatment, except for triacylglycerols
- change of LDL components (obese rats): only tricylglycerol levels decreased
- change of chylomicra and VLDL components (obese rats): marked decreases
- change of total phospholipid levels in lipoprotein-depleted plasma (obese rats): decrease
- levels of all lipid classes in whole plasma (obese rats): markedly lower levels
- overall loss of lipoprotein lipase because of treatment (lipoprotein lipase; lean animals, vs control): 37%
- effect on lipoprotein lipase activity in plasma (lipoprotein lipase; lean rats, vs controls): generalized rise
- effect on lipoprotein lipase activity of the tissues studied (lipoprotein lipase; lean rats, vs controls): did not affect significantly
- Lipoprotein-lipase activity, WAT mesenteric, whole tissue of the rat (lipoprotein lipase; lean rats): 133 ± 64 nkat/rat
- Lipoprotein-lipase activity, WAT periovaric, whole tissue of the rat (lipoprotein lipase; lean rats): 33.2 ± 5.0 nkat/rat
- Lipoprotein-lipase activity, Muscle, whole tissue of the rat (lipoprotein lipase; lean rats, muscle mass calculated as 43% of body weight): 8.79 ± 0.72 nkat/rat
- Lipoprotein-lipase activity, Liver, per gram of tissue protein (lipoprotein lipase; lean rats): 1.74 ± 0.32 nkat/g P
- Lipoprotein-lipase activity, Liver, per unit of tissue weight (lipoprotein lipase; lean rats): 204 ± 48 pkat/g
- Lipoprotein-lipase activity, Liver, whole organ of the rat (lipoprotein lipase; lean rats): 1.12 ± 0.34 nkat/rat
- Lipoprotein-lipase activity, Muscle, per gram of tissue protein (lipoprotein lipase; lean rats): 3.09 ± 0.57 nkat/g P
- Lipoprotein-lipase activity, Muscle, per unit of tissue weight (lipoprotein lipase; lean rats): 110.3 ± 41.3 pkat/g
- Lipoprotein-lipase activity, Plasma (lipoprotein lipase; lean rats): 11.76 ± 1.75 pkat/mL
- Lipoprotein-lipase activity, Plasma, per gram of protein (lipoprotein lipase; lean rats): 147.8 ± 18.9 pkat/g P
- Lipoprotein-lipase activity, WAT mesenteric, per gram of tissue protein (lipoprotein lipase; lean rats): 779 ± 384 nkat/g P
- Lipoprotein-lipase activity, WAT mesenteric, per unit of tissue weight (lipoprotein lipase; lean rats): 10.25 ± 4.94 nkat/g
- Lipoprotein-lipase activity, WAT periovaric, per gram of tissue protein (lipoprotein lipase; lean rats): 317 ± 111 nkat/g P
- Lipoprotein-lipase activity, WAT periovaric, per unit of tissue weight (lipoprotein lipase; lean rats): 2.56 ± 0.39 nkat/g
- Lipoprotein-lipase activity, Plasma, whole compartment of the rat (lipoprotein lipase; lean rats): 59.2 ± 11.6 pkat/rat
- overall lipoprotein lipase activity in the rat (muscle + liver + plasma + WAT) (lipoprotein lipase; lean treated rats): 152 nkat
- decrease in mesenteric WAT lipoprotein lipase (lipoprotein lipase; lean, vs control): 64%
- decrease in periovaric WAT lipoprotein lipase (lipoprotein lipase; lean, vs control): 45%
- overall loss of lipoprotein lipase because of treatment (lipoprotein lipase; obese animals, vs control): 51%
- change of lipoprotein lipase activity in skeletal muscle (lipoprotein lipase; obese rats, vs control): increased fourfold
- effect on lipoprotein lipase activity in WAT (lipoprotein lipase; obese rats, vs controls): decreases
- effect on lipoprotein lipase activity in liver (lipoprotein lipase; obese rats, vs controls): no changes
- effect on lipoprotein lipase activity in plasma (lipoprotein lipase; obese rats, vs controls): increases
- Lipoprotein-lipase activity, WAT mesenteric, whole tissue of the rat (lipoprotein lipase; obese rats): 129 ± 27 nkat/rat
- Lipoprotein-lipase activity, WAT periovaric, whole tissue of the rat (lipoprotein lipase; obese rats): 135 ± 19 nkat/rat
- Lipoprotein-lipase activity, Muscle, whole tissue of the rat (lipoprotein lipase; obese rats, muscle mass calculated as 33% of body weight): 152 ± 18 nkat/rat
- Lipoprotein-lipase activity, Liver, per gram of tissue protein (lipoprotein lipase; obese rats): 1.41 ± 0.21 nkat/g P
- Lipoprotein-lipase activity, Liver, per unit of tissue weight (lipoprotein lipase; obese rats): 182 ± 27 pkat/g
- Lipoprotein-lipase activity, Liver, whole organ of the rat (lipoprotein lipase; obese rats): 2.48 ± 0.26 nkat/rat
- Lipoprotein-lipase activity, Muscle, per gram of tissue protein (lipoprotein lipase; obese rats): 40.8 ± 4.4 nkat/g P
- Lipoprotein-lipase activity, Muscle, per unit of tissue weight (lipoprotein lipase; obese rats): 1383 ± 168 pkat/g
- Lipoprotein-lipase activity, Plasma (lipoprotein lipase; obese rats): 7.19 ± 1.76 pkat/mL
- Lipoprotein-lipase activity, Plasma, per gram of protein (lipoprotein lipase; obese rats): 107.1 ± 23.6 pkat/g P
- Lipoprotein-lipase activity, WAT mesenteric, per gram of tissue protein (lipoprotein lipase; obese rats): 1767 ± 420 nkat/g P
- Lipoprotein-lipase activity, WAT mesenteric, per unit of tissue weight (lipoprotein lipase; obese rats): 1.40 ± 0.29 nkat/g
- Lipoprotein-lipase activity, WAT periovaric, per gram of tissue protein (lipoprotein lipase; obese rats): 245 ± 51 nkat/g P
- Lipoprotein-lipase activity, WAT periovaric, per unit of tissue weight (lipoprotein lipase; obese rats): 1.46 ± 0.21 nkat/g
- Lipoprotein-lipase activity, Plasma, whole compartment of the rat (lipoprotein lipase; obese rats): 51.4 ± 9.3 pkat/rat
- overall lipoprotein lipase activity in the rat (muscle + liver + plasma + WAT) (lipoprotein lipase; obese treated rats): 338 nkat
- decrease in mesenteric WAT lipoprotein lipase (lipoprotein lipase; obese, vs control): 87%
- decrease in periovaric WAT lipoprotein lipase (lipoprotein lipase; obese, vs control): 56%
